Biological target: T1, FGFR-1 (Homo sapiens, UniProt P11362)
T1 construct: GST; made in house
Test: FGFR-1 TR-FRET biochemical assay
Protocol: FGFR-1TR-FRET Biochemical Assay
The FGFR-1 Assay was performed on half well 96-well opaque plates (Costar 3915) in a LANCE format. LANCE is a homogenous time resolved fluormetry based application available through Perkin Elmer. For this assay, 50 uL reactions were set up using: 0.6 uM ATP (Sigma), 25 nM poly GT-biotin (CIS BIO International), 2 nM Eu-labelled phospho-Tyr Ab (PY20 PerkinElmer), 10 nM Streptavidin-APC (Perkin Elmer), 5 nM FGFR1-GST (generated by DRT, Bayer Healthcare), 1% DMSO, 50 mM HEPES pH 7.5, 10 mM MgCl2, 0.1 mM EDTA, 0.015% Brij, 0.1 mg/ml BSA, 0.1% B-mercaptoethanol. All reactions were initiated with the addition of enzyme and were left to incubate for one hour at room temperature. Time-resolved fluorescence was then read on a Perkin Elmer VictorV Multilabel counter. The reading protocol uses an excitation wavelength at 340 nm and emission reads at both 615 and 665 nm. Signal was calculated as a ratio: (Flourescence at 665 nm/Flourescence at 615 nM)*10000 for each well. The background control used for this assay is the signal produced with all assay components excluding ATP. For IC50 generation, compounds were added prior to the enzyme initiation. A 50-fold stock plate was made with compounds serially diluted 1:5 in a 50% DMSO/50% dH2O solution. A 1 μL addition of the stock to the assay wells gave final compound concentrations ranging from 10 μM-0.128 nM in 1% DMSO. The data were expressed as percent inhibition: % inhibition=100−((Signal with inhibitor−background)/(Signal without inhibitor−background))*100.

[1] = 0.6 uM ATP, 5 nM FGFR1-GST, bounds given in nM
[2] = upper bound of the bin 'greater than 100 nM but less than 1 μM' (lower bound in E1)

T1 sequence (P11362 22-822): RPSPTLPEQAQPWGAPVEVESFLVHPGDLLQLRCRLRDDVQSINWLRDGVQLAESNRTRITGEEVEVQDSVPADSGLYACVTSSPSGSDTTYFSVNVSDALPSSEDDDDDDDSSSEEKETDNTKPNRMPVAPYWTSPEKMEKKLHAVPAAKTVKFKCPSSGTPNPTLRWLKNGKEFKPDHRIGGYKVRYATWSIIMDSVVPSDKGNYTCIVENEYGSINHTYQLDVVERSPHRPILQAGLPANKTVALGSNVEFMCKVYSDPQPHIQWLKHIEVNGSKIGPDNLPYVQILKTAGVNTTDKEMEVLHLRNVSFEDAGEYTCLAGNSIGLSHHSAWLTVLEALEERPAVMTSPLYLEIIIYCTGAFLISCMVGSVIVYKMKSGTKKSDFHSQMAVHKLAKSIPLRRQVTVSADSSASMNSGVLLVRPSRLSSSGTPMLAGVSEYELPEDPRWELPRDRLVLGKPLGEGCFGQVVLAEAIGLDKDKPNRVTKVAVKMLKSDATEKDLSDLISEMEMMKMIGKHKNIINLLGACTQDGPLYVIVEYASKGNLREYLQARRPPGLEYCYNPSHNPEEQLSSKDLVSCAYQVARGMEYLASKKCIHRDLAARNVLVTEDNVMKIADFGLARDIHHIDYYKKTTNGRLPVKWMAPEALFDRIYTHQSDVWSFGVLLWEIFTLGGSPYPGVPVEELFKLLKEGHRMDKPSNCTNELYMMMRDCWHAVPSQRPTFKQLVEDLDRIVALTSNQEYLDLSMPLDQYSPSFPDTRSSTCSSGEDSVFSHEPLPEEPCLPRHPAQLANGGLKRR

Row | SMILES | IC50 [1] | IC50 [2]
1 | CC(C)(O)c1cc(-c2ccc(NC(=O)Nc3cc(C(F)(F)F)ccc3F)cc2)c2c(N)ncnn12 [Example 104, N-{4-[4-amino-7-(1-hydroxy-1-methylethyl)pyrrolo[2,1-f][1,2,4]triazin-5-yl]phenyl}-N′-[2-fluoro-5-(trifluoromethyl)phenyl]urea] | 10 to 100 nM | –
2 | Nc1ncnn2c(CCCN3CCOCC3)cc(-c3ccc(NC(=O)Nc4cc(C(F)(F)F)ccn4)cc3)c12 [Example 107, N-{4-[4-amino-7-(3-morpholin-4-ylpropyl)pyrrolo[2,1-f][1,2,4]triazin-5-yl]phenyl}-N′-[4-(trifluoromethyl)pyridin-2-yl]urea] | < 10 nM | –
3 | Nc1ncnn2c(CCCN3CCOCC3)cc(-c3ccc(NC(=O)Nc4cc(C(F)(F)F)ccc4F)cc3)c12 [Example 108, N-{4-[4-amino-7-(3-morpholin-4-ylpropyl)pyrrolo[2,1-f][1,2,4]triazin-5-yl]phenyl}-N′-[2-fluoro-5-(trifluoromethyl)phenyl]urea] | < 10 nM | –
4 | Nc1ncnn2c(CCCN3CCOCC3)cc(-c3ccc(NC(=O)Nc4cc(C(F)(F)F)ccc4F)c(F)c3)c12 [Example 109, N-{4-[4-amino-7-(3-morpholin-4-ylpropyl)pyrrolo[2,1-f][1,2,4]triazin-5-yl]-2-fluorophenyl}-N′-[2-fluoro-5-(trifluoromethyl)phenyl]urea] | < 10 nM | –
5 | Nc1ncnn2c(C3CCNCC3)cc(-c3ccc(NC(=O)Nc4cc(C(F)(F)F)ccc4F)c(F)c3)c12 [Example 111, N-[4-(4-amino-7-piperidin-4-ylpyrrolo[2,1-f][1,2,4]-triazin-5-yl)-2-fluorophenyl]-N′-[2-fluoro-5-(trifluoromethyl)phenyl]urea] | < 10 nM | –
6 | Nc1ncnn2c(C3CCN(C(=O)C(F)(F)F)CC3)cc(-c3ccc(NC(=O)Nc4cc(C(F)(F)F)ccc4F)c(F)c3)c12 [Example 112, N-(4-4-amino-7-[1-(trifluoroacetyl)piperidin-4-yl]pyrrolo[2,1-f][1,2,4]triazin-5-yl-2-fluorophenyl)-N′-[2-fluoro-5-(trifluoromethyl)-phenyl]urea] | > 100 nM | < 1000 nM
7 | CN1CCC(c2cc(-c3ccc(NC(=O)Nc4cc(C(F)(F)F)ccc4F)c(F)c3)c3c(N)ncnn23)CC1 [Example 113, N-4-[4-amino-7-(1-methylpiperidin-4-yl)pyrrolo[2,1-f][1,2,4]triazin-5-yl]-2-fluorophenyl-N′-[2-fluoro-5-(trifluoromethyl)phenyl]urea] | < 10 nM | –
8 | Nc1ncnn2c(C3CCN(C(=O)CO)CC3)cc(-c3ccc(NC(=O)Nc4cc(C(F)(F)F)ccc4F)c(F)c3)c12 [Example 114, N-4-[4-amino-7-(1-glycoloylpiperidin-4-yl)pyrrolo[2,1-f][1,2,4]triazin-5-yl]-2-fluorophenyl-N′-[2-fluoro-5-(trifluoromethyl)phenyl]urea] | < 10 nM | –
9 | Nc1ncnn2c(C3CCN(C(=O)CN4CCOCC4)CC3)cc(-c3ccc(NC(=O)Nc4cc(C(F)(F)F)ccc4F)c(F)c3)c12 [Example 115, N-(4-4-amino-7-[1-(morpholin-4-ylacetyl)piperidin-4-yl]pyrrolo[2,1-f][1,2,4]triazin-5-yl-2-fluorophenyl)-N′-[2-fluoro-5-(trifluoromethyl)-phenyl]urea] | 10 to 100 nM | –
10 | Nc1ncnn2c(C3CCN(CCO)CC3)cc(-c3ccc(NC(=O)Nc4cc(C(F)(F)F)ccc4F)c(F)c3)c12 [Example 116, N-(4-4-amino-7-[1-(2-hydroxyethyl)piperidin-4-yl]pyrrolo[2,1-f][1,2,4]triazin-5-yl-2-fluorophenyl)-N′-[2-fluoro-5-(trifluoromethyl)phenyl]urea] | < 10 nM | –
11 | Nc1ncnn2c(C3CCN(CC(=O)O)CC3)cc(-c3ccc(NC(=O)Nc4cc(C(F)(F)F)ccc4F)c(F)c3)c12 [Example 119, [4-(4-amino-5-3-fluoro-4-[([2-fluoro-5-(trifluoromethyl)-phenyl]aminocarbonyl)amino]phenylpyrrolo[2,1-f][1,2,4]triazin-7-yl)piperidin-1-yl]acetic acid] | < 10 nM | –
12 | CNC(=O)CN1CCC(c2cc(-c3ccc(NC(=O)Nc4cc(C(F)(F)F)ccc4F)c(F)c3)c3c(N)ncnn23)CC1 [Example 120, 2-[4-(4-amino-5-3-fluoro-4-[([2-fluoro-5-(trifluoromethyl)phenyl]aminocarbonyl)amino]phenylpyrrolo[2,1-f][1,2,4]triazin-7-yl)piperidin-1-yl]-N-methylacetamide] | < 10 nM | –
13 | Nc1ncnn2c(C3CCN(CC(O)CO)CC3)cc(-c3ccc(NC(=O)Nc4cc(C(F)(F)F)ccc4F)c(F)c3)c12 (stereo not drawn) [Example 121, N-(4-4-amino-7-[1-(2,3-dihydroxypropyl)piperidin-4-yl]pyrrolo[2,1-f][1,2,4]triazin-5-yl-2-fluorophenyl)-N′-[2-fluoro-5-(trifluoromethyl)-phenyl]urea] | < 10 nM | –
14 | CC(C)(C)NC(=O)N1CCC(c2cc(-c3ccc(NC(=O)Nc4cc(C(F)(F)F)ccn4)c(F)c3)c3c(N)ncnn23)CC1 [Example 124, 4-4-amino-5-[3-fluoro-4-([4-(trifluoromethyl)pyridin-2-yl]carbamoylamino)phenyl]pyrrolo[2,1-f][1,2,4]triazin-7-yl-N-tert-butylpiperidine-1-carboxamide] | 10 to 100 nM | –
15 | Nc1ncnn2c(CN3CCOCC3)cc(-c3ccc(NC(=O)Nc4cc(C(F)(F)F)ccc4F)c(Cl)c3)c12 [Example 128, N-4-[4-amino-7-(morpholin-4-ylmethyl)pyrrolo[2,1-f][1,2,4]triazin-5-yl]-2-chlorophenyl-N′-[2-fluoro-5-(trifluoromethyl)phenyl]urea] | < 10 nM | –
16 | Nc1ncnn2c(CN3CCOCC3)cc(-c3ccc(NC(=O)Nc4cc(C(F)(F)F)ccn4)c(Cl)c3)c12 [Example 129, N-4-[4-amino-7-(morpholin-4-ylmethyl)pyrrolo[2,1-f][1,2,4]triazin-5-yl]-2-chlorophenyl-N′-[4-(trifluoromethyl)pyridin-2-yl]urea] | < 10 nM | –
17 | Cc1ccnc(NC(=O)Nc2ccc(-c3cc(CN4CCOCC4)n4ncnc(N)c34)cc2Cl)c1 [Example 133, N-4-[4-amino-7-(morpholin-4-ylmethyl)pyrrolo[2,1-f][1,2,4]triazin-5-yl]-2-chlorophenyl-N′-(4-methylpyridin-2-yl)urea] | 10 to 100 nM | –
18 | Cc1cc(NC(=O)Nc2cc(C(F)(F)F)ccc2F)c(F)cc1-c1cc(CN2CCOCC2)n2ncnc(N)c12 [Example 136, N-{4-[4-amino-7-(morpholin-4-ylmethyl)pyrrolo[2,1-f][1,2,4]triazin-5-yl]-2-fluoro-5-methylphenyl}-N′-[2-fluoro-5(trifluoromethyl)-phenyl]urea] | 10 to 100 nM | –
19 | Cc1ccc(F)c(NC(=O)Nc2cc(F)c(-c3cc(CN4CCOCC4)n4ncnc(N)c34)cc2F)c1 [Example 145, N-{4-[4-amino-7-(morpholin-4-ylmethyl)pyrrolo[2,1-f][1,2,4]triazin-5-yl]-2,5-difluorophenyl}-N′-(2-fluoro-5-methylphenyl)urea] | 10 to 100 nM | –
20 | Cc1cc(NC(=O)Nc2cc(C(F)(F)F)ccc2Cl)c(F)cc1-c1cc(CN2CCOCC2)n2ncnc(N)c12 [Example 147, N-{4-[4-amino-7-(morpholin-4-ylmethyl)pyrrolo[2,1-f][1,2,4]triazin-5-yl]-2-fluoro-5-methylphenyl}-N′-[2-chloro-5-(trifluoromethyl)phenyl]urea] | > 100 nM | < 1000 nM
21 | Cc1ccc(F)c(NC(=O)Nc2ccc(-c3cc(CN4CCOCC4)n4ncnc(N)c34)cc2F)c1 [Example 149, N-{4-[4-amino-7-(morpholin-4-ylmethyl)pyrrolo[2,1-f][1,2,4]triazin-5-yl]-2-fluorophenyl}-N′-(2-fluoro-5-methylphenyl)urea] | < 10 nM | –
22 | CN1CCN(C(=O)c2cc(-c3ccc(NC(=O)Nc4cc(C(F)(F)F)ccc4F)c(F)c3)c3c(N)ncnn23)CC1 [Example 161, N-(4-{4-amino-7-[(4-methylpiperazin-1-yl)carbonyl]pyrrolo[2,1-f][1,2,4]triazin-5-yl}-2-fluorophenyl)-N′-[2-fluoro-5-(trifluoromethyl)phenyl]urea] | < 10 nM | –
23 | Nc1ncnn2c(CN3CCNC(=O)C3)cc(-c3ccc(NC(=O)Nc4cc(C(F)(F)F)ccn4)c(F)c3)c12 [Example 163, N-(4-{4-amino-7-[(3-oxopiperazin-1-yl)methyl]-pyrrolo [2,1-f][1,2,4]triazin-5-yl}-2-fluorophenyl)-N′-[4-(trifluoromethyl)-pyridin-2-yl]urea] | < 10 nM | –
24 | Nc1ncnn2c(CN3CCNC(=O)C3)cc(-c3cc(F)c(NC(=O)Nc4cc(C(F)(F)F)ccc4F)cc3F)c12 [Example 164, N-(4-{4-amino-7-[(3-oxopiperazin-1-yl)methyl]-pyrrolo [2,1-f][1,2,4]triazin-5-yl}-2,5-difluorophenyl)-N′-[2-fluoro-5-(trifluoromethyl)phenyl]urea] | < 10 nM | –
25 | Cc1cc(-c2cc(CN3CCNC(=O)C3)n3ncnc(N)c23)ccc1NC(=O)Nc1cc(C(F)(F)F)ccc1F [Example 165, N-(4-{4-amino-7-[(3-oxopiperazin-1-yl)methyl]-pyrrolo[2,1-f][1,2,4]triazin-5-yl}-2-methylphenyl)-N′-[2-fluoro-5-(trifluoromethyl)-phenyl]urea] | < 10 nM | –

From US8143393B2, “Substituted 4-amino-pyrrolotriazine derivatives useful for treating hyper-proliferative disorders and diseases associated with angiogenesis” (Bayer HealthCare LLC, priority 2005, dated 2012)
